Test results published in paper PMC4749975, “Selective binding modes and allosteric inhibitory effects of lupane triterpenes on protein tyrosine phosphatase 1B” (Scientific Reports, 2016).
“Also recorded” adds a separate entry of the source. Like-named read-outs stand apart in the source and are kept apart here.

How the values were obtained:
PTP1B [1] = molecular target: T1, PTP1B (Homo sapiens, UniProt P18031); conditions: cited from earlier work; for IC50: read-out: IC50 PTP1B
T1 sequence (P18031 1-435): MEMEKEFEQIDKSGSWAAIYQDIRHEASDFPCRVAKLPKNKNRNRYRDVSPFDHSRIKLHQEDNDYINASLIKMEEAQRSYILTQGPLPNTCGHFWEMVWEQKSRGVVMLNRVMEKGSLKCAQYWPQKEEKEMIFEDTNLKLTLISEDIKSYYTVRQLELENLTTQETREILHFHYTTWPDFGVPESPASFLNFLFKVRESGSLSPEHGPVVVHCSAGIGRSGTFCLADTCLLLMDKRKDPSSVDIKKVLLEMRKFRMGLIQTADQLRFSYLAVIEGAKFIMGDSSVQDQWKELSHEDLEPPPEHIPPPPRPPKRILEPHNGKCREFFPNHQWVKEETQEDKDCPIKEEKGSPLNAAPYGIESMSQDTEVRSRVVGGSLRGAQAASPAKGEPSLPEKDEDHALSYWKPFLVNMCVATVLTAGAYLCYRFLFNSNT

PTP1B [2] = molecular target: T1, PTP1B; assay: PTP1B inhibition kinetics assay (Lineweaver-Burk, pNPP); type: biochemical; conditions: Lineweaver-Burk plot; for mode of inhibition of PTP1B: 6 pNPP and 4 compound concentrations
Method: The Lupeol group was used as a control group. The absorbance at 405 nm was detected by a spectraMAX 384 microplate spectrophotometer twice every minute for a total of 15 min. Michaelis-Menten constant (Km) and maximum velocity (Vmax) of PTP1B were determined via Lineweaver-Burk plots using the GraphPad Prism 5 program (GraphPad Software Inc, La Jolla, CA).

[3] = molecular target: T2, recombinant human TCPTP protein (Homo sapiens, UniProt P17706); assay: Inhibiting TCPTP by pNPP phosphatase assay; type: biochemical; conditions: for Fold changes (TCPTP IC50 / PTP1B IC50): PTP1B IC50 from literature, TCPTP IC50 measured
T2 construct: purchased Abcam Inc (Cambridge, MA) ab42575
T2 sequence (P17706 1-415): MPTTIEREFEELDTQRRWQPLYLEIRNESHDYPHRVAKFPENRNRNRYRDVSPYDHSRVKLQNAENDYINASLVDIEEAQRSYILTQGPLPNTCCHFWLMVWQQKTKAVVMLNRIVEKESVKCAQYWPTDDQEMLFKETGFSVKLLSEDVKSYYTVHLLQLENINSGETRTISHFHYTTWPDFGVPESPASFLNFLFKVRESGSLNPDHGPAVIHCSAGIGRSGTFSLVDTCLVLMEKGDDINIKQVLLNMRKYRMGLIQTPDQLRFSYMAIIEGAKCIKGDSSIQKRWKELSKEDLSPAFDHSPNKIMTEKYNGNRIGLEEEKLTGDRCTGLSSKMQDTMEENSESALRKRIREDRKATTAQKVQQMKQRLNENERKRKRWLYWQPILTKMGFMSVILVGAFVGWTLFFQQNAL

PTP1B [4] = molecular target: T1, PTP1B; assay: Estimation of Ki and binding free energy from experimental IC50 (IC50-to-Ki converter)
PTP1B [5] = molecular target: T3, PTP1B (Mus musculus, UniProt P35821); assay: Immunoprecipitation assay of PTP1B activity in TNFα-treated mHypoE-46 neurons; type: cell-based
T3 construct: endogenous in cells; host or cells: mHypoE-46 mouse hypothalamic neurons
T3 sequence (P35821 1-432): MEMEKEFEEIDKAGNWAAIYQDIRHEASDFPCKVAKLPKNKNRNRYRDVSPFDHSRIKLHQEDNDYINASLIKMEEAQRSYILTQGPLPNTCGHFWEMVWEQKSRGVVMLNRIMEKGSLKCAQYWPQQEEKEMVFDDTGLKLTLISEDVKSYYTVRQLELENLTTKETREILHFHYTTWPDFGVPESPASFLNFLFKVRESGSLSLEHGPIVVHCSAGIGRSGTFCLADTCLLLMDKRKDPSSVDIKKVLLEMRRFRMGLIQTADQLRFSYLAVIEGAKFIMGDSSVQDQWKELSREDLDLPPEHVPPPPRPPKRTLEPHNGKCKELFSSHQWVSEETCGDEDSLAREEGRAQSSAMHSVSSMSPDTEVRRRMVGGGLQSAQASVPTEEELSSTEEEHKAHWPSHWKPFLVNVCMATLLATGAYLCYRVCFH
Method: (§1) Mouse hypothalamic cell line (mHypoE-46) neurons were grown in monolayer in Dulbecco’s modified Eagle medium (DMEM) (Sigma D5796, Castle Hill, NSW) with 10% fetal bovine serum (FBS) (SAFC Biosciences Inc, Lenexa, KS) and 1% penicillin/streptomycin. They were maintained at 37 °C with 5% CO2. Prior to treatment, the cell culture medium was replaced with DMEM containing 1% penicillin/streptomycin for 4 h. Murine TNFα was obtained from Sigma-Aldrich (Castle Hill, NSW). Lupeol and betulinic acid were dissolved in Dimethyl sulfoxide (DMSO), then diluted in sterile water, and mixed with serum free cell culture medium. The DMSO concentration was controlled below 0.15%.
Based on the instructions of the Pierce Classic IP Kit (#26146, Thermo Fisher Scientific Inc, IL) with minor modifications, PTP1B was immunoprecipitated using the 25 μg PTP1B antibody (sc-1718, Santa Cruz Biotechnology Inc, Dallas, TX) for 12 h at 4 °C. Immune complexes were isolated by adding the protein G-agarose, washed three times in the phosphatase assay buffer from the EnzoLyte Colorimetric pNPP Protein Phosphatase Assay kit (Anaspec, San Jose, CA), and resuspended in the same buffer. Samples were analysed for the phosphatase activity using the same pNPP assay kit mentioned above.

PTP1B [6] = assay: Western blot of PTP1B protein expression in mHypoE-46 neurons; type: cell-based, Mouse; conditions: for PTP1B protein expression: 10 h after TNFα 8 h
Method: as §1
The method was described in our previous study with modifications, mHypoE-46 neurons were washed with ice-cold PBS and lysed in NP-40 lysis buffer (Invitrogen Australia Pty Ltd, Mulgrave, VIC) containing a protease inhibitor cocktail, beta-glycerophosphate and phenylmethanesulfonyl fluoride (PMSF) (Sigma, Castle Hill, NSW). Cell lysates were centrifuged at 14000 rpm for 10 min at 4 °C. The supernatants were collected and protein concentrations were determined using the DC assay (Bio-Rad Laboratories, Gladesville, NSW) according to the manufacturer’s instructions. Equal amounts of protein (10 μg) were separated on 4–12% Bis-Tris gels (Bio-Rad Laboratories, Gladesville, NSW,) using SDS-PAGE. Following electrophoresis (120 V for 2 h), the proteins were transferred to polyvinylidene difluoride membranes (100 V for 1 h). Membranes were blocked in 5% bovine serum albumin (BSA), followed by incubation with the primary antibodies PTP1B (sc-1718, 1:500, Santa Cruz Biotechnology Inc, Dallas, TX) in 1% BSA overnight at 4 °C. […] The bands corresponding to the proteins of interest were scanned and densitometrically analysed using the automatic imaging analysis system Quantity One (Bio-Rad Laboratories, Gladesville, NSW). All quantitative analyses were normalised to β-actin.

[7] = pNPP assay, 25 °C, read-out: IC50 TCPTP

Row | Compound | IC50 (PTP1B [1]) [µM] | Km value of PTP1B in presence of compound (PTP1B [2]) | Vmax value of PTP1B in presence of compound (PTP1B [2]) | mode of inhibition of PTP1B (PTP1B [2]) | IC50 [3] [µM] | Fold changes (TCPTP IC50 / PTP1B IC50) [3] [fold] | Ki (PTP1B [4]) [µM] | IC50 [3, 7] [µM] | mode of inhibition of PTP1B (literature) (PTP1B [1]) | also measured
1 | C=C(C)[C@@H]1CC[C@]2(CO)CC[C@]3(C)[C@H](CC[C@@H]4[C@@]5(C)CC[C@H](O)C(C)(C)[C@@H]5CC[C@]43C)[C@@H]12 [Betulin, betulin] | 15.3 | altered Km value | decreased Vmax value | mixed-type inhibition | 119 | 7 | 15.3 | – | – | –
2 | C=C(C)[C@@H]1CC[C@]2(C(=O)O)CC[C@]3(C)[C@H](CC[C@@H]4[C@@]5(C)CC[C@H](O)C(C)(C)[C@@H]5CC[C@]43C)[C@@H]12 [Betulinic acid, betulinic acid] | – | constant Km value | decreased Vmax value | non-competitive inhibitor | – | 81 | – | 124 | – | inhibition of PTP1B enzyme activity (PTP1B [5]; betulinic acid 7.5 μM, 10 h after TNFα 8 h): significantly inhibited; inhibition at 7.5 µM (PTP1B [5]; betulinic acid 7.5 μM, 10 h after TNFα 8 h, read-out: inhibition of PTP1B enzyme activity): 35%; Ki (PTP1B [4]; IC50-to-Ki converter, [E] 0.01, [S] 20000 µM, read-out: Constant of inhibition [Ki]): 1.5 µM; PTP1B protein expression (PTP1B [6]; betulinic acid 7.5 μM): slightly decreased; also recorded: do not significantly decrease
3 | CCc1oc2cc(S(=O)(=O)Nc3ccc(S(=O)(=O)Nc4nccs4)cc3)ccc2c1C(=O)c1cc(Br)c(O)c(Br)c1 [Compound 3, reference compound] | – | – | – | – | – | – | – | 62.7 | – | –
4 | C=C(C)[C@@H]1CC[C@]2(C)CC[C@]3(C)[C@H](CC[C@@H]4[C@@]5(C)CCC(=O)C(C)(C)[C@@H]5CC[C@]43C)[C@@H]12 [Lupenone, lupenone] | 13.7 | – | – | – | – | 6 | – | 91.5 | non-competitive inhibitors | –
5 | C=C(C)[C@@H]1CC[C@]2(C)CC[C@]3(C)[C@H](CC[C@@H]4[C@@]5(C)CC[C@H](O)C(C)(C)[C@@H]5CC[C@]43C)[C@@H]12 [Lupeol, lupeol] | 5.6 | – | – | – | 126 | 22 | 5.6 | – | non-competitive inhibitor | inhibition of PTP1B enzyme activity (PTP1B [5]; lupeol 28 μM, 10 h after TNFα 8 h): significantly inhibited; inhibition at 28 µM (PTP1B [5]; lupeol 28 μM, 10 h after TNFα 8 h, read-out: inhibition of PTP1B enzyme activity): 35%; PTP1B protein expression (PTP1B [6]; lupeol 28 μM): slightly decreased; also recorded: do not significantly decrease
6 | TNFα | – | – | – | – | – | – | – | – | – | increase of PTP1B activity (PTP1B [5]; TNFα 20 ng/ml, 8 h): 1.5 fold; increase of PTP1B expression (PTP1B [6]; TNFα 20 ng/ml, 8 h): 1.75 fold
